Data reported in patent publication US20190270733A1, “Quinoline and Isoquinoline Based HDAC Inhibitors and Methods of Use Thereof” (Reaction Biology Corp., priority 2018, published 2019).

Key:
Human HDAC1 = target: T1, Human HDAC1 (Homo sapiens, UniProt Q13547); experiment: Biochemical HDAC assay, HDAC1; settings: incubation time 120 min
T1 construct: full-length with a C-terminal His-tag and a C-terminal FLAG-tag; His-tag (C); FLAG-tag (C); made in house
Method: Human HDAC1 (GenBank Accession No. NM_004964), full-length with a C-terminal His-tag and a C-terminal FLAG-tag, MW=56 kDa, was expressed in a baculovirus expression system.
(§1) • I. Compound handling: Testing compounds were dissolved in 100% DMSO to a specific concentration. The serial dilution was conducted by epMotion 5070 in DMSO. • II. HDAC reaction buffer: 50 mM Tris-HCl, pH8.0, 137 mM NaCl, 2.7 mM KCl, and 1 mM MgCl2, Added fresh: 1 mg/ml BSA, 1% DMSO. • III. Substrate: Fluorogenic HDAC General Substrate for HDAC1, 2, 3, 6, 10, 11 ans Sirt1, 2 and 3: Arg-His-Lys-Lys(Ac); HDAC8 only substrate: Arg-His-Lys(Ac)-Lys(Ac); Class2A Substrate (HDAC4, 5, 7 and 9): Acetyl-Lys(trifluoroacetyl)-AMC; Sirt5 substrate: Ac-Lys(succinyl)-AMC. • IV. General Reaction Procedure: (Standard IC50 determination) • a. Delivered 2× enzyme in wells of reaction plate except No Enzyme (No En) control wells. Add buffer in No En wells. • b. Delivered compounds in 100% DMSO into the enzyme mixture by Acoustic technology (Echo550; nanoliter range). Spin down and pre-incubation. • c. Delivered 2× Substrate Mixture (Fluorogenic HDAC Substrate and co-factor (500 μM of Nicotinamide adenine dinucleotide (NAD^+) in all Sirt assay) in all reaction wells to initiate the reaction. Spin and shake. • d. Incubated for 1-2 hr. at 30° C. with seal. • e. Added Developer with Trichostatin A (or TMP269 or NAD^+) to stop the reaction and to generate fluorescent color. • f. Fluorescence was read (excitatory, 360; emission, 460) using the EnVision Multilabel Plate Reader (Perkin Elmer) • g. Endpoint reading was taken for analysis after the development reaches plateau. • V. Data Analysis: The percentages of enzyme activity (relative to DMSO controls) and IC50 values were calculated using the GraphPad Prism 4 program based on a sigmoidal dose-response equation.
(§2) Compounds with indicated doses was tested in the biochemical assays of HDAC1, HDAC2, HDAC3, HDAC4, HDAC5, HDAC6, HDAC7, HDAC8, HDAC9, HDAC10, or HDAC11 enzyme. The incubation time in HDAC1/2 assays are 120 min, and that for other HDACs are 10 min. The curve fit and IC50 values were calculated using the GraphPad Prism 4 program based on a sigmoidal dose-response equation.

Recombinant human HDAC6 = target: T2, Recombinant human HDAC6 (Homo sapiens, UniProt Q9UBN7); experiment: Biochemical HDAC assay, HDAC6; settings: incubation time 10 min
T2 construct: full-length, MW=180 kDa; GST tag (N); made in house; host or cells: Sf9 insect cells (baculovirus)
T2 sequence (Q9UBN7 1-1215): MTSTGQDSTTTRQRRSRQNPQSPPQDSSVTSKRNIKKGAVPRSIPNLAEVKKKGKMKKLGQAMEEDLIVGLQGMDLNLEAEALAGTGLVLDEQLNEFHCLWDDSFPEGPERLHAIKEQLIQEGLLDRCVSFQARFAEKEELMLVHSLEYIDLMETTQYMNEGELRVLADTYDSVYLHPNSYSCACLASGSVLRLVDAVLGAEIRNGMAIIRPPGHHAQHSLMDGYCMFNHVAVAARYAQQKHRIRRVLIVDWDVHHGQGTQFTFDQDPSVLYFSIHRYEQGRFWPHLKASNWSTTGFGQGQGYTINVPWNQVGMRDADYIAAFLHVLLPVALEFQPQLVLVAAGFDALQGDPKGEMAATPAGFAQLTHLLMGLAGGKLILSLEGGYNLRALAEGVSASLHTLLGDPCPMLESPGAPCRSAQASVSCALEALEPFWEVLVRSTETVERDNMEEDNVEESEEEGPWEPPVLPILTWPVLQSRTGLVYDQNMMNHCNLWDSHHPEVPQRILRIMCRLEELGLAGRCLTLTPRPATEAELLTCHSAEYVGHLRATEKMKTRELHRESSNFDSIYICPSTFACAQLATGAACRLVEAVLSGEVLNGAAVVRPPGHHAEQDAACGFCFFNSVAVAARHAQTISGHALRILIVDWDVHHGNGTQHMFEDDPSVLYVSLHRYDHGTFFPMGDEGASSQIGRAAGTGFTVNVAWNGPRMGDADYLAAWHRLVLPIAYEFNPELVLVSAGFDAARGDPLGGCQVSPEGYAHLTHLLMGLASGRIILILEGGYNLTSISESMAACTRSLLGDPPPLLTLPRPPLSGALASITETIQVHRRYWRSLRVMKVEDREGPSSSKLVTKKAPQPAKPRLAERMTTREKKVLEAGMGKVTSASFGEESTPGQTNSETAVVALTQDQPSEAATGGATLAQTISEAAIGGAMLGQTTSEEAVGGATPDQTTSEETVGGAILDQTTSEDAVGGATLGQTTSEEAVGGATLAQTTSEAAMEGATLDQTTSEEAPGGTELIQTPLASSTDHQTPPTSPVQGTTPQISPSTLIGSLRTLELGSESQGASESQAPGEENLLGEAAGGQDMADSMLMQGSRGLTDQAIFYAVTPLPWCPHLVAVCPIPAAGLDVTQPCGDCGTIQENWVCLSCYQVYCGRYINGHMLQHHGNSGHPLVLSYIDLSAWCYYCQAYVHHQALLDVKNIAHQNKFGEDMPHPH
Method: Recombinant human HDAC6 (GenBank Accession No. BC069243), full-length, MW=180 kDa, was expressed by baculovirus in Sf9 insect cells using an N-terminal GST tag.
as §1, §2

T1 sequence (Q13547 whole entry): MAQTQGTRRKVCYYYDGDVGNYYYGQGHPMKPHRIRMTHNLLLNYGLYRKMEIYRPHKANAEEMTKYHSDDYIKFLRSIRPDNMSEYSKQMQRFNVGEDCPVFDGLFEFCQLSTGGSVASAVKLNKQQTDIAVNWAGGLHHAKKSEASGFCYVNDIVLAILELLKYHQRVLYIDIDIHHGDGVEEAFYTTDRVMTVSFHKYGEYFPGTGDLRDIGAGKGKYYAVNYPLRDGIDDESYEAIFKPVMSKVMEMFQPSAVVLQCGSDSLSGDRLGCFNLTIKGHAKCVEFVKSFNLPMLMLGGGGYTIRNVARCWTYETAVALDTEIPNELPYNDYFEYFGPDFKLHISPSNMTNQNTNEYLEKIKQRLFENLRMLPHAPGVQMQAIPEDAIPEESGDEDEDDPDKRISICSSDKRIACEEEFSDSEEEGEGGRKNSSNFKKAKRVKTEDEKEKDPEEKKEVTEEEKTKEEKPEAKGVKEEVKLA

IC50 (Human HDAC1): 2.5 nM
IC50 (Recombinant human HDAC6): > 10 µM
Compound: Nc1ccc(-c2cccs2)cc1NC(=O)c1ccc2c(c1)CCC(=O)N2 [Example 5, N-(2-amino-5-(thiophen-2-yl)phenyl)-2-oxo-1,2,3,4-tetrahydroquinoline-6-carboxamide]
